Results on 20 compounds are retold here after BindingDB's records for patent US20250163061 (Bala Therapeutics, 2025).

The assay deals with T1, Menin (Homo sapiens, UniProt O00255).
T1 sequence (O00255 whole entry): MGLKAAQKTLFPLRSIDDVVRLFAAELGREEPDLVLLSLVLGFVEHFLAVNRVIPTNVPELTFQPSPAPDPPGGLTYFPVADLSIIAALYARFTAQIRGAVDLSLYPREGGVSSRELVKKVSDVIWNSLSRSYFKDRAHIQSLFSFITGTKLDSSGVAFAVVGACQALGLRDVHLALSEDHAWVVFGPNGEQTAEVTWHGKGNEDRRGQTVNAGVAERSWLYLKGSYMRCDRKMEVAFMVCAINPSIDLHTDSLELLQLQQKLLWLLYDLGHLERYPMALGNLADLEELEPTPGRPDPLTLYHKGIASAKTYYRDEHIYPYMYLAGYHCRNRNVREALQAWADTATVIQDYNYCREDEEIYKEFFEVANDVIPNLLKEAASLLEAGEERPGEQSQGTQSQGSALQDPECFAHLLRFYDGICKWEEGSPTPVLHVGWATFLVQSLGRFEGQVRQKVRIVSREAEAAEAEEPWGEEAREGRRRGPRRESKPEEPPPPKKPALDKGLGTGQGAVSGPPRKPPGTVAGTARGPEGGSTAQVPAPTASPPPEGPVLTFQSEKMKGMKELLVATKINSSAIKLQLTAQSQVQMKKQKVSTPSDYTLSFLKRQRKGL
In words: Primary Assay Used to Determine Potency of MEN1 Activity Inhibition. As to the method: Compound activity was determined using recombinant MEN1 protein (Creativebiomart, Cat #MEN1-35H) and a custom fluorescein-labeled MLL4-43 peptide (Eton Bioscience Inc.). Interaction between MEN1 and MLL4-43 in the presence of compounds was determined by fluorescence polarization assay using a Microplate Reader ClarioStar Plus. The reaction was carried out in assay buffer (50 mM TRIS-HCl pH 7.4-7.6, 50 mM NaCl, 1 mM DTT, 0.1 mg/ml BSA). The compounds were dispensed on a 384 well Diamond Well Plate (Axigen, Cat #P-384-120SQ-C-S) using the Biomek FX liquid handling system at 100× solutions of compounds in DMSO. 2×MEN1 mix (final concentration of MEN1 10 nM) was prepared in Assay buffer and 10 μl of mixture per well was added into 384 w white Reaction plate with NBS (Corning, Cat #4513). 10 μl of Assay buffer w/o MEN1 was used for negative control. Plates were centrifuged for 1 min at 100 g. Next step the Compounds were added to Reaction plate using Biomek station via following steps: 3 μl of 100× compounds (in DMSO) were mixed thoroughly with 27 μl Assay Buffer, then 2 μl of this mixture was added to Reaction plate with 10 μl of MEN1 mix. Plates were centrifuged for 1 min at 100 g and incubated for 20 min at room temperature. Next 8 μL of MLL4-43 peptide per well was added to final concentration of MLL 0.5 nM. Plates were incubated for 1 hour at room temperature. Then fluorescence polarization was measured using Microplate Reader.
On to `Cc1c(CN2CCC3(CC2)CN(c2ncnc4ccc(CC(F)(F)F)cc24)C3)ccc2c1cc(C#N)n2CCN1CCNC1=O`, for which the half-maximal effective concentration (EC50) was under 75 nM. The compound `Cc1c(CN2CCC3(CC2)CN(c2ncnc4ccc(CC(F)(F)F)cc24)C3)ccc2c1cc(C#N)n2CC12CC(NS(C)(=O)=O)(C1)C2` returned an EC50 of under 75 nM. For the compound `N#Cc1cc2cc(CN3CCC4(CC3)CN(c3ncnc5ccc(CC(F)(F)F)cc35)C4)ccc2[nH]1`, the EC50 is under 75 nM.

Compound `Cc1c(CN2CCC3(CC2)CN(c2ncnc4ccc(OC(F)(F)F)cc24)C3)ccc2c1cc(C#N)n2C[C@@H]1CNC(=O)CO1` [US20250163061, Compound 1] returned a concentration giving a half-maximal response (EC50) of under 75 nM. For `Cc1c(CN2CCC3(CC2)CN(c2ncnc4ccc(CC(F)(F)F)cc24)C3)ccc2c1cc(C#N)n2CC1CCNC(=O)CO1` (stereo not given) [US20250163061, Compound 2] the value was under 75 nM.

Compound `Cc1c(CN2CCC3(CC2)CN(c2ncnc4ccc(CC(F)(F)F)cc24)C3)ccc2c1cc(C#N)n2CC1CNC(=O)NC1` [US20250163061, Compound 4] registered an EC50 of under 75 nM.

Turning to `Cc1c(CN2CCC3(CC2)CN(c2ncnc4ccc(CC(F)(F)F)cc24)C3)ccc2c1cc(C#N)n2CC1CCNC(=O)CC1` (stereo not given) [US20250163061, Compound 5], the concentration for a half-maximal effect (EC50) is under 75 nM. For `Cc1c(CN2CCC3(CC2)CN(c2ncnc4ccc(CC(F)(F)F)cc24)C3)ccc2c1cc(C#N)n2CC1CNC(=O)C(C)O1` (stereo not given) [US20250163061, Compound 7] the value was under 75 nM; for `Cc1c(CN2CCC3(CC2)CN(c2ncnc4ccc(CC(F)(F)F)c(F)c24)C3)ccc2c1cc(C#N)n2CC1CNC(=O)CO1` (stereo not given) [US20250163061, Compound 12], under 75 nM; for `Cc1c(CN2CCC3(CC2)CN(c2ncnc4ccc(CC(F)(F)F)cc24)C3)ccc2c1cc(C#N)n2C(C)CCN1CCN(S(C)(=O)=O)CC1` (stereo not given) [US20250163061, Compound 13], under 75 nM. `Cc1c(CN2CCC3(CC2)CN(c2ncnc4ccc(CC(F)(F)F)cc24)C3)ccc2c1cc(C#N)n2Cc1ccc(=O)[nH]c1` [US20250163061, Compound 14] displayed a 50% effective concentration (EC50) of under 75 nM.

The compound `Cc1c(CN2CCC3(CC2)CN(c2ncnc4ccc(CC(F)(F)F)cc24)C3)ccc2c1cc(C#N)n2CC1CN(C)C(=O)CO1` (stereo not given) [US20250163061, Compound 15] showed a 50% effective concentration (EC50) of under 75 nM. Compound `Cc1c(CN2CCC3(CC2)CN(c2ncnc4ccc(CC(F)(F)F)cc24)C3)ccc2c1cc(C#N)n2CC1CN(C)S(=O)(=O)CO1` (stereo not given) [US20250163061, Compound 16] showed a 50% effective concentration (EC50) of under 75 nM. Consider `CCCCS(=O)(=O)N1CCN(C(C)Cn2c(C#N)cc3c(C)c(CN4CCC5(CC4)CN(c4ncnc6ccc(CC(F)(F)F)cc46)C5)ccc32)CC1` (stereo not given) [US20250163061, Compound 17], for which the EC50 is under 75 nM.

`COc1cc2c(cc1CN1CCC3(CC1)CN(c1ncnc4ccc(CC(F)(F)F)cc14)C3)cc(C#N)n2CC(C)N1CCN(S(C)(=O)=O)CC1` (stereo not given) [US20250163061, Compound 20]: the EC50 was under 75 nM. Take `Cc1c(CN2CCC3(CC2)CN(c2ncnc4ccc(CC(F)(F)F)cc24)C3)ccc2c1cc(C#N)n2CC1CNS(=O)(=O)CO1` (stereo not given) [US20250163061, Compound 21]: the concentration giving a half-maximal response (EC50) is under 75 nM. As to `Cc1c(CN2CCC3(CC2)CN(c2ncnc4ccc(CC(F)(F)F)cc24)C3)ccc2c1cc(C#N)n2CC1CCNC(=O)C1` (stereo not given) [US20250163061, Compound 22], the EC50 is under 75 nM. In the case of `Cc1c(CN2CCC3(CC2)CN(c2ncnc4ccc(CC(F)(F)F)cc24)C3)ccc2c1cc(C#N)n2[C@H](C)CN1CCN(S(C)(=O)=O)CC1` [US20250163061, Compound 23], the half-maximal effective concentration (EC50) was under 75 nM.

Take `Cc1c(CN2CCC3(CC2)CN(c2ncnc4ccc(CC(F)(F)F)cc24)C3)ccc2c1cc(C#N)n2[C@@H](C)CN1CCN(S(C)(=O)=O)CC1` [US20250163061, Compound 24]: the concentration giving a half-maximal response (EC50) was under 75 nM. With `CCS(=O)(=O)N1CCN([C@H](C)Cn2c(C#N)cc3c(C)c(CN4CCC5(CC4)CN(c4ncnc6ccc(CC(F)(F)F)cc46)C5)ccc32)C[C@@H]1C` [US20250163061, Compound 25], the EC50 was under 75 nM.

For orientation: EC50 means the concentration giving half of the maximal effect. Low readings indicate an effect from little substance, high ones a need for much substance.
